Assay results from article PMC11061835, “Elucidating the Mechanism of Metabolism of Cannabichromene by Human Cytochrome P450s” (Journal of Natural Products, 2024).
“And” between values parts separate entries of the source, which are not always exact repeats. Equal entries are not always repeated.

Key:
CYP2J2 with CPR = target: T1, CYP2J2 with CPR (Homo sapiens, UniProt P51589); experiment: NADPH activity assay, CYP2J2 with CPR; assay type: biochemical
T1 construct: His-tag; made in house; host or cells: E. coli DH-5α with pTGro7 plasmid (CYP)
T1 sequence (P51589 1-502): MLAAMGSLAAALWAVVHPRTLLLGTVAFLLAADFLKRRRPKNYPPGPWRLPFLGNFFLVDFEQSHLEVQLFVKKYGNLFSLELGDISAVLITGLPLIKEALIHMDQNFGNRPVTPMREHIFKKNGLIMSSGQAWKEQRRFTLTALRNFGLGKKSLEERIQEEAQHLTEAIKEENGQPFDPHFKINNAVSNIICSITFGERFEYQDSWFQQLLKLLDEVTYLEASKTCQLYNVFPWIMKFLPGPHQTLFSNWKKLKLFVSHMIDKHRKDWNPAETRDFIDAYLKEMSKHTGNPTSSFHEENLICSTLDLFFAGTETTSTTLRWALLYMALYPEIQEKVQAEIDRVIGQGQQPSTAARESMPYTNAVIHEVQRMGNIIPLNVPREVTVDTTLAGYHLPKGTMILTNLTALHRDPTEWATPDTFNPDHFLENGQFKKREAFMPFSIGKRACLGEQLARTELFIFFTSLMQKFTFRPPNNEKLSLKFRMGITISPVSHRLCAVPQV
T1 sequence (P16435 1-677 partner): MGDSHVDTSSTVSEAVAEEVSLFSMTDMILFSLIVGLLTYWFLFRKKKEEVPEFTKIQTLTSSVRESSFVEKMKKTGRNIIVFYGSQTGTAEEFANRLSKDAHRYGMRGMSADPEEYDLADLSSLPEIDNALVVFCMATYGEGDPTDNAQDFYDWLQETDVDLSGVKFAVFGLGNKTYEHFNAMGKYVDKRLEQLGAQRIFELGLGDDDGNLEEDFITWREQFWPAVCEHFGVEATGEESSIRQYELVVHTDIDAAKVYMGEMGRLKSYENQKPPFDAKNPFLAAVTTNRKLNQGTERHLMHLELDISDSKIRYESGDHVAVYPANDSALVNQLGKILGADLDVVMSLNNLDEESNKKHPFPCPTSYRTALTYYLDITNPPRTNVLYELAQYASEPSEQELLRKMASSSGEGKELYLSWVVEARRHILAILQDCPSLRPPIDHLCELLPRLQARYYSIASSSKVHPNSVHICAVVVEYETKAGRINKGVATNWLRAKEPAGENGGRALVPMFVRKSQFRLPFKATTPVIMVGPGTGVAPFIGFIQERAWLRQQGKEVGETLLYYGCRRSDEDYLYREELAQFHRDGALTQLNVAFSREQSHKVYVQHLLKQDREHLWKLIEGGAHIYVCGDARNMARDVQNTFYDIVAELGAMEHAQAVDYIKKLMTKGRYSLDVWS
Description: (§1) CYP-mediated NADPH oxidation was measured using kinetics mode in a Cary 300 UV–vis spectrometer (Agilent Technologies). 0.2 μM (final concentration) of CYP was taken in 0.1 M potassium phosphate buffer (pH 7.4) and incubated with 0.6 μM (final concentration) of CPR for 5 min with a reaction volume of 400 μL. The reaction was initiated with 200 μM of NADPH, and the absorption change was monitored over 10 min at 340 nm. The rate of NADPH consumption (or NADPH to NADP^+ conversion) was calculated by taking the molar extinction coefficient as 6.22 mM^–1 cm^–1 at 340 nm. To estimate the change in NADPH oxidation in the presence of CBC, both CYP and CPR were further incubated using CBC (final concentration 50 μM) for 5 min followed by measuring the change in absorbance at 340 nm as discussed earlier.

CYP2C8 with CPR = target: T2, CYP2C8 with CPR (Homo sapiens, UniProt P10632); experiment: NADPH activity assay, CYP2C8 with CPR; assay type: biochemical; conditions: CYP2C8, CBC 50 μM vs substrate-free
T2 construct: His-tag; made in house; host or cells: E. coli DH-5α with pTGro7 plasmid (CYP)
T2 sequence (P10632 1-490): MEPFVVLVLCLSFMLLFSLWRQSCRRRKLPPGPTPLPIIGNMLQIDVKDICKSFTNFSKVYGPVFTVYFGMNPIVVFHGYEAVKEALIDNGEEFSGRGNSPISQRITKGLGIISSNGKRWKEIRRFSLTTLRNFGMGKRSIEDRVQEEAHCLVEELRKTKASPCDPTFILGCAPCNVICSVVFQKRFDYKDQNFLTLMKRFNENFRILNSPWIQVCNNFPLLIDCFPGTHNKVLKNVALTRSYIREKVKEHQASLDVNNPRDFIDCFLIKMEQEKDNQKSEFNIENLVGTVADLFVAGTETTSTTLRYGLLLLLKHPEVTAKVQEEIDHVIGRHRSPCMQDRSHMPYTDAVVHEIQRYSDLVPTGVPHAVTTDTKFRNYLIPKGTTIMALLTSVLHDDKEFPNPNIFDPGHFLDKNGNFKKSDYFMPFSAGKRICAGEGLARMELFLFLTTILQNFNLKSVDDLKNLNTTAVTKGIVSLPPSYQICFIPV
T2 sequence (P16435 1-677 partner): T1 sequence (P16435 1-677 partner)
Description: as §1

CYP2J2 = target: T3, CYP2J2 (Homo sapiens, UniProt P51589); experiment: Spectroscopic titration (Soret shift), CYP2J2; assay type: binding; conditions: CYP2J2, absence of CPR
T3 construct: His-tag; made in house; host or cells: E. coli DH-5α with pTGro7 plasmid
T3 sequence (P51589 1-502): T1 sequence (P51589 1-502)
Description: (§2) CBC binding to various CYPs was determined by analyzing the Soret shift from ∼417 to ∼390 nm. CBC (stock 10 mM) was dissolved in ethanol and titrated with different CYPs at room temperature. Buffer-exchanged CYP2J2, CYP2D6, CYP3A4, and CYP2C8 (concentrations of proteins were kept between 4 and 5 μM) were dissolved in 0.1 M phosphate buffer (pH = 7.4), and initial spectra were recorded from 200 to 800 nm with a prominent peak at 417 nm. The concentration of CBC was varied from 0 to 100 μM keeping the final concentration of substrate in EtOH not more than 1% in cuvette. 0–4 μL of stock CBC was added using a Hamilton syringe in both the sample and blank cuvettes. The mixture was incubated for 5 min at 37 °C, and absorbance spectra were recorded using a Cary Bio 300 UV–vis spectrophotometer (Agilent Technologies, Santa Clara, CA). To eliminate the background absorbance, we derived the final spectra by […].

CYP2C8 = target: T4, CYP2C8 (Homo sapiens, UniProt P10632); experiment: Spectroscopic titration (Soret shift), CYP2C8; assay type: binding; conditions: CYP2C8, absence of CPR
T4 construct: His-tag; made in house; host or cells: E. coli DH-5α with pTGro7 plasmid
T4 sequence (P10632 1-490): T2 sequence (P10632 1-490)
Description: as §2

With `CCCCCc1cc(O)c2c(c1)OC(C)(CCC=C(C)C)C=C2` (stereo not shown) [CBC, Cannabichromene] the “NADPH rate (CYP+CPR+CBC)” value (CYP2J2 with CPR; CYP2J2, CBC 50 μM) was 21.7 nmol/min/nmol and ~20 nmol/min/nmol, the “percentage increase of NADPH consumption in the presence of CBC” value (CYP2J2 with CPR; CYP2J2, CBC 50 μM vs substrate-free) was about 60% and the “percentage increase of NADPH consumption in the presence of CBC” value (CYP2C8 with CPR) was about 60%. The “ΔAmax (spin state change due to heme perturbation)” value (CYP2J2) was 0.04 ± 0.00 and ~0.04, the Kd (CYP2J2; read-out: Kd(app)) was 3.06 µM and ~3 µM and the “ΔAmax (spin state change due to heme perturbation)” value (CYP2C8) was 0.15 ± 0.00 and ~0.15. The Kd (CYP2C8; read-out: Kd(app)) was 38.1 µM and ~38 µM.
